How the values were obtained:
Experiment in all cases: biochemical
Set-up in all cases: in vitro kinase selectivity panel, protein and lipid kinases, single concentration, ATP at Km
Details in all cases: ATP at Km
c-RAF(h) = molecular target: T1, c-RAF(h) (Homo sapiens, UniProt P04049)
T1 construct: gene RAF1
In short: (§1)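 Single-point screen against a protein and lipid kinase panel: inhibitor at 1 μM. ATP concentration for every kinase equivalent to its Km.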

FGFR2(h) = FGFR2(h) (Homo sapiens, UniProt P21802)
In short: as §1

IGF-1R(h) = molecular target: T2, IGF-1R(h) (Homo sapiens, UniProt P08069)
T2 construct: gene IGF1R
In short: as §1

Yes(h) = molecular target: T3, Yes(h) (Homo sapiens, UniProt P07947)
T3 construct: gene YES1
In short: as §1

Rsk1(h) = molecular target: T4, Rsk1(h) (Homo sapiens, UniProt Q15418)
T4 construct: gene RPS6KA1
In short: as §1

CHK2(h) = molecular target: T5, CHK2(h) (Homo sapiens, UniProt O96017)
T5 construct: gene CHEK2
In short: as §1

FGFR1(h) = FGFR1(h) (Homo sapiens, UniProt P11362)
In short: as §1

CHK1(h) = molecular target: T6, CHK1(h) (Homo sapiens, UniProt O14757)
T6 construct: gene CHEK1
In short: as §1

ARK5(h) = molecular target: T7, ARK5(h) (Homo sapiens, UniProt O60285)
T7 construct: gene NUAK1
In short: as §1

PAK4(h) = PAK4(h) (Homo sapiens, UniProt O96013)
In short: as §1

AMPKα1(h) = molecular target: T8, AMPKα1(h) (Homo sapiens, UniProt Q13131)
T8 construct: gene PRKAA1
In short: as §1

PKCβII(h) = molecular target: T9, PKCβII(h) (Homo sapiens, UniProt P05771)
T9 construct: gene PRKCB; isoform beta II
In short: as §1

Ret(h) = Ret(h) (Homo sapiens, UniProt P07949)
In short: as §1

EGFR(L858R)(h) = EGFR(L858R)(h) (Homo sapiens, UniProt P00533, L858R)
In short: as §1

Fer(h) = Fer(h) (Homo sapiens, UniProt P16591)
In short: as §1

MAPKAP-K2(h) = molecular target: T10, MAPKAP-K2(h) (Homo sapiens, UniProt P49137)
T10 construct: gene MAPKAPK2
In short: as §1

cKit(D816H)(h) = molecular target: T11, cKit(D816H)(h) (Homo sapiens, UniProt P10721, D816H)
T11 construct: gene KIT
In short: as §1

T3 sequence (P07947 whole entry): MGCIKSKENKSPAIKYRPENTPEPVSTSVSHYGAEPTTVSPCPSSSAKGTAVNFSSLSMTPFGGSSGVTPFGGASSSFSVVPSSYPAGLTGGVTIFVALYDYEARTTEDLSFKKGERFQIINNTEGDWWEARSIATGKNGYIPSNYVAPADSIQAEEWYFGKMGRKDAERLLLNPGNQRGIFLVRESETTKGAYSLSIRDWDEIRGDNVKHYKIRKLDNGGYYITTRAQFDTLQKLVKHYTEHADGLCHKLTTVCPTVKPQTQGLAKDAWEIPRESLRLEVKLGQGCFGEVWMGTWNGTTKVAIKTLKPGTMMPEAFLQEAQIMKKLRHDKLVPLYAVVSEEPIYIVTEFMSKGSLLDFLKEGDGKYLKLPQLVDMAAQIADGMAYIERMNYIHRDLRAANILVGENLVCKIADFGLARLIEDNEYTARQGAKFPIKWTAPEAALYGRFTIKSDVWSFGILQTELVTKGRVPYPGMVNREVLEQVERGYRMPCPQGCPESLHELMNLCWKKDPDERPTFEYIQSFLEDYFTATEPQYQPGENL
FGFR2(h), sequence (P21802 whole entry): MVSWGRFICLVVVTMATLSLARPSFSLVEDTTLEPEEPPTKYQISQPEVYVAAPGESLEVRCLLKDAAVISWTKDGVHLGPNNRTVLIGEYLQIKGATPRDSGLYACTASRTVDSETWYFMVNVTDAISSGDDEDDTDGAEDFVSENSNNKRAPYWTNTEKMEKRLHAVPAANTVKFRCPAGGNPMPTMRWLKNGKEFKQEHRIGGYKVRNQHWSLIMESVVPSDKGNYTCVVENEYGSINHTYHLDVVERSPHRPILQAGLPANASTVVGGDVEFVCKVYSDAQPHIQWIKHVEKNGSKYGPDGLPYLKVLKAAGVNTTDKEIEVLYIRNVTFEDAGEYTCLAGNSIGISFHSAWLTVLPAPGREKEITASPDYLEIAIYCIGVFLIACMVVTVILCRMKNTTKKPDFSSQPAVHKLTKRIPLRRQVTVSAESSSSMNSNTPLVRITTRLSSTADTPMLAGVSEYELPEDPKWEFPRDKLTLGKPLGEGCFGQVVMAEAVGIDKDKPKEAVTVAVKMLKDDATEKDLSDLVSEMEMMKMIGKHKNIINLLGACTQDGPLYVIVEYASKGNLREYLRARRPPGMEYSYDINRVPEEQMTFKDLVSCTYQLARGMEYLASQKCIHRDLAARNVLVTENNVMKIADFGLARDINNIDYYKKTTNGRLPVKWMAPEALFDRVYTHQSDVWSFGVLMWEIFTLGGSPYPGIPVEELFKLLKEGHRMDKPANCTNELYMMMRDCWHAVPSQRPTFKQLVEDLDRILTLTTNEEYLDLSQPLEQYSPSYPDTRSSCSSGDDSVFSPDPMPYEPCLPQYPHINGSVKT
T8 sequence (Q13131 whole entry): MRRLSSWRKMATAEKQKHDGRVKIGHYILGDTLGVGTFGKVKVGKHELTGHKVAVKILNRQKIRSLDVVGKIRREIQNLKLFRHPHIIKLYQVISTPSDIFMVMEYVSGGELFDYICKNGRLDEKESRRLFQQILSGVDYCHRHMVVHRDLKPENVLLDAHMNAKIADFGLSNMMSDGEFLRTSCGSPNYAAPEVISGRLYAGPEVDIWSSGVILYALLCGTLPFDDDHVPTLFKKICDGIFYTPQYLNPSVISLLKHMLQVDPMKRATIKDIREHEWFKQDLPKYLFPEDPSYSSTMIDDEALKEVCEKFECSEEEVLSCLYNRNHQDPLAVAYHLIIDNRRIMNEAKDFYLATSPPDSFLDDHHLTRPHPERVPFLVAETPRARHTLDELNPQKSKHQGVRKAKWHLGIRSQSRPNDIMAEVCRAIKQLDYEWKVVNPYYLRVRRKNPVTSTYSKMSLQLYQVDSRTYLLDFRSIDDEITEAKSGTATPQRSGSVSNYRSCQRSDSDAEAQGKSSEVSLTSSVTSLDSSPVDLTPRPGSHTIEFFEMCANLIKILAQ
T8 sequence (P54619 whole entry partner): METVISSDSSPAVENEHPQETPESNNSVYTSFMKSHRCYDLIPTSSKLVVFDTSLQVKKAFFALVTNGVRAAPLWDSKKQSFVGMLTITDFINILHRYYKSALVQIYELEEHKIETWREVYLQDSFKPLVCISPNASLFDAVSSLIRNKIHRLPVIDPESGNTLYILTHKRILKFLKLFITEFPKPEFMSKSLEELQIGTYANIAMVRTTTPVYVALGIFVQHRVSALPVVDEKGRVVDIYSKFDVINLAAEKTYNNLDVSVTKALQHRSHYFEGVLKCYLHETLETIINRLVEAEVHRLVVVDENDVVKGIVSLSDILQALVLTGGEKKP
T8 sequence (Q9Y478 whole entry partner): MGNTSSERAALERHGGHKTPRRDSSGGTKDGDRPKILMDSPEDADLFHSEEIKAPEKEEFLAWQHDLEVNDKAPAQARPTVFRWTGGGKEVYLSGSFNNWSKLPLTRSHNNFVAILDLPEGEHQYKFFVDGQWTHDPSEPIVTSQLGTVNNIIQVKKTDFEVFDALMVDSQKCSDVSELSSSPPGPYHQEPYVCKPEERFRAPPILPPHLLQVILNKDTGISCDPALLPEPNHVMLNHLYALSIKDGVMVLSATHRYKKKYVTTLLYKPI
T1 sequence (P04049 whole entry): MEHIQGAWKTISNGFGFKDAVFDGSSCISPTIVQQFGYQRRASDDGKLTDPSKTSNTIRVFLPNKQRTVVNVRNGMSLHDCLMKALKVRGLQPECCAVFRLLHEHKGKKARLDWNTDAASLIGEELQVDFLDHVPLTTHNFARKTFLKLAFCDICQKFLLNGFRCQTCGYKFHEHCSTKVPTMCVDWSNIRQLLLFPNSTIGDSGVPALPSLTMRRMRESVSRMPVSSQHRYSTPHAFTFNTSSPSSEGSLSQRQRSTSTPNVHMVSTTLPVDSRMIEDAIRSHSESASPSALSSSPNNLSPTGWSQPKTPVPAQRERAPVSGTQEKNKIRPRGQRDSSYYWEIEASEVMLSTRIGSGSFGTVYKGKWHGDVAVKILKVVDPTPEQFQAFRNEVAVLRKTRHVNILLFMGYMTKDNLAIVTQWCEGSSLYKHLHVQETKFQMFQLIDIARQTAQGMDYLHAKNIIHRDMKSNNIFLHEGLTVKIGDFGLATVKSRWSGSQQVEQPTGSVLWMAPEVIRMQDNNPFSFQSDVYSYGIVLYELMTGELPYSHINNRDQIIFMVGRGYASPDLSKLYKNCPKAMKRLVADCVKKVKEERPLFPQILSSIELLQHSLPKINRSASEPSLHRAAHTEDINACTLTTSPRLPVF
T11 sequence (P10721 whole entry D816H): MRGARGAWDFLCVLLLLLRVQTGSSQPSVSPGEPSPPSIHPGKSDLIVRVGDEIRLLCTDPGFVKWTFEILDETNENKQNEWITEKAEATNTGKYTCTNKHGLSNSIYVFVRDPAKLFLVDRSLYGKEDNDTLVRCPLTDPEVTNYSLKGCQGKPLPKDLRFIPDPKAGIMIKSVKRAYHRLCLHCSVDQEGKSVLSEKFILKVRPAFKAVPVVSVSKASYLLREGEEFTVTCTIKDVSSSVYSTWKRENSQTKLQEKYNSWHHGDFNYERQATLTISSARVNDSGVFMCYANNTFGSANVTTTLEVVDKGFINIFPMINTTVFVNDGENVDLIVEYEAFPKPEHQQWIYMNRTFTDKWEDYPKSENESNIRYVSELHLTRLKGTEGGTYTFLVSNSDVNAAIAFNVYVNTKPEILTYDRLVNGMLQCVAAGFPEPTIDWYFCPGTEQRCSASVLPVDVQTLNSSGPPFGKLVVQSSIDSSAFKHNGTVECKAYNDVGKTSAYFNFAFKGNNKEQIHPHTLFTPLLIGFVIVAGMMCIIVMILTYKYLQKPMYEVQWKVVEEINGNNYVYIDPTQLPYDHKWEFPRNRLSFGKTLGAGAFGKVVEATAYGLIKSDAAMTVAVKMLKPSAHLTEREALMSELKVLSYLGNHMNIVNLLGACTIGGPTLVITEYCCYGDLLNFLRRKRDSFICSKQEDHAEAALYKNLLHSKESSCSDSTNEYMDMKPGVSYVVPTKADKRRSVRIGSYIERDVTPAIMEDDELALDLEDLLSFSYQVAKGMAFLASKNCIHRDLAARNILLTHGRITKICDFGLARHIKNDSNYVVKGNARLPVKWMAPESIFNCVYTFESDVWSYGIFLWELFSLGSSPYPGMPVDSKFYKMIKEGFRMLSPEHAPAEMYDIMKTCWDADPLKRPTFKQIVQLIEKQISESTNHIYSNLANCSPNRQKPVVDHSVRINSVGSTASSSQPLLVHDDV
T4 sequence (Q15418 whole entry): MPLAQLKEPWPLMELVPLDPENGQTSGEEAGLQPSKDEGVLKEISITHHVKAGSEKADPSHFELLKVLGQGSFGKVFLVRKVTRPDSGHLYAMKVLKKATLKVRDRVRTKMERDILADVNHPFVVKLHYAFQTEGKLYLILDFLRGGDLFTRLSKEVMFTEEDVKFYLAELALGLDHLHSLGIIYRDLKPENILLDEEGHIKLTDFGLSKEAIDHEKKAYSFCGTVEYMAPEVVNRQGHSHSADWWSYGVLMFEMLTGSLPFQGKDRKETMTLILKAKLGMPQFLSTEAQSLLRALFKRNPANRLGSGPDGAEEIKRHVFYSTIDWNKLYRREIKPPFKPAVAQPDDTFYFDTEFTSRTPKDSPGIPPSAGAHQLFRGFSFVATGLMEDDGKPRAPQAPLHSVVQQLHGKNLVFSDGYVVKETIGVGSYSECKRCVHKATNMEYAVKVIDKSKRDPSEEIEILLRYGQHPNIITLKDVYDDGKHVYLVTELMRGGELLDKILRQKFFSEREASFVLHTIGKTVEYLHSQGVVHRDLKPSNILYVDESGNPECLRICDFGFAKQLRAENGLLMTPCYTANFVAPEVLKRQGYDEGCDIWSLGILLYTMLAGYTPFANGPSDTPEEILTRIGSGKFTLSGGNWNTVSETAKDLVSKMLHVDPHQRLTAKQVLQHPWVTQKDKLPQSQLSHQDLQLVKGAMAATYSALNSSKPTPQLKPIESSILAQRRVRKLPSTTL

CC[C@@H](N)CNc1ccnc(-c2cc(-c3cnn(C)c3)ccc2O)n1 [CRT0066101]
inhibition at 1 µM (c-RAF(h)): 4% | inhibition at 1 µM (FGFR2(h)): 5% | inhibition at 1 µM (IGF-1R(h)): -14% | inhibition at 1 µM (Yes(h)): 40% | inhibition at 1 µM (Rsk1(h)): 48% | inhibition at 1 µM (CHK2(h)): 26% | inhibition at 1 µM (FGFR1(h)): -30% | inhibition at 1 µM (CHK1(h)): -2% | inhibition at 1 µM (ARK5(h)): 49% | inhibition at 1 µM (PAK4(h)): 4% | inhibition at 1 µM (AMPKα1(h)): 17% | inhibition at 1 µM (PKCβII(h)): -1% | inhibition at 1 µM (Ret(h)): 0% | inhibition at 1 µM (EGFR(L858R)(h)): -1% | inhibition at 1 µM (Fer(h)): -25% | inhibition at 1 µM (MAPKAP-K2(h)): -9% | inhibition at 1 µM (cKit(D816H)(h)): 51%

From article PMC5391474, “Investigation of the Role of Protein Kinase D in Human Rhinovirus Replication” (Journal of Virology, 2017)
